Measurements taken from ChEMBL document CHEMBL5316345, “Discovery of the Potent and Selective MC4R Antagonist PF-07258669 for the Potential Treatment of Appetite Loss” (J Med Chem, 2023).
Active and inactive are the calls of the source. The calls are words filed in the database; no cut-off is given here.

Legend:
[1] = AUC (0 to infinity) in Wistar Han rat at 1 mg/kg, iv measured at 0.033 to 24 hrs by LC-MS/MS analysis; format: ADME, organism-based; design: time upper 24 hrs, dose 1 mg/kg, time lower 0.033 hrs, route iv; settings: in vivo
Mus musculus [2] = test: Effect on body weight in anorexia/cachexia mouse model assessed as reduction in cumulative food intake at 10 mg/kg, po administered twice a day for 20 days and measured at 1 to 21 days; format: functional; design: scale not given: the % may be the effect or the level left; settings: time 20 day
[3] = Passive apparent permeability in MDCKII-LE cells; format: ADME, cell-based, Canis lupus familiaris; settings: dog, MDCK; read-out: permeability (converted)
[4] = molecular target: Dual 3',5'-cyclic-AMP and -GMP phosphodiesterase 11A (Homo sapiens, UniProt Q9HCR9); test: Inhibition of human PDE11A4
Mus musculus [5] = test: Effect on body weight in anorexia/cachexia mouse model assessed as body weight gain administered twice a day for 20 days and measured at 1 to 21 days; format: functional, organism-based; settings: dose 0.3-10 mg/kg, time 1-21 day
[6] = AUClast in Beagle dog at 1 mg/kg, po measured at 0.25 to 24 hrs by LC-MS/MS analysis; format: ADME, organism-based, Canis lupus familiaris; design: time upper 24 hrs, dose 1 mg/kg, time lower 0.25 hrs, route po; settings: in vivo
[7] = molecular target: T1, Melanocyte-stimulating hormone receptor (Homo sapiens, UniProt Q01726); test: Displacement of [125I]-NDP-alpha-MSH from human MC1R expressed in CHO cells measured for 2 hrs by microbeta counter analysis; format: cell-based
Target sequence in this assay (Q01726 whole entry): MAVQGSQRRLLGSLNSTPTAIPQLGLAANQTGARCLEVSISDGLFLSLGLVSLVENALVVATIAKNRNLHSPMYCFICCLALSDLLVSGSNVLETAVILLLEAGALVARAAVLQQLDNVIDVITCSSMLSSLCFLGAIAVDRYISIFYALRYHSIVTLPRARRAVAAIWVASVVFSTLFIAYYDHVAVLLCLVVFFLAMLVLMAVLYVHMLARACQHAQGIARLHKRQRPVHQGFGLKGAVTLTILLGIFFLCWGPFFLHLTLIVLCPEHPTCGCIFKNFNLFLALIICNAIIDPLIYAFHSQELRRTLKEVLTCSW

[8] = Clearance in Wistar Han rat plasma at 1 mg/kg, iv measured at 0.033 to 24 hrs by LC-MS/MS analysis; format: ADME, organism-based; settings: time 0.033-24 hrs
[9] = Cmax in Beagle dog at 1 mg/kg, po measured at 0.25 to 24 hrs by LC-MS/MS analysis; format: ADME, organism-based, Canis lupus familiaris; design: dose 1 mg/kg, time 0.25-24 hrs, route po; settings: in vivo
Mus musculus [10] = test: Effect on body weight in anorexia/cachexia mouse model assessed as reduction in cumulative food intake at 0.3 mg/kg, po administered twice a day for 20 days and measured at 1 to 21 days; format: functional; design: scale not given: the % may be the effect or the level left; settings: time 1-21 day
[11] = molecular target: Voltage-gated inwardly rectifying potassium channel KCNH2 (Homo sapiens, UniProt Q12809); test: Inhibition of hERG expressed in CHO cells stably at -80 mV holding potential by automated patch clamp method; format: toxicity, cell-based
[12] = molecular target: cAMP and cAMP-inhibited cGMP 3',5'-cyclic phosphodiesterase 10A (Homo sapiens, UniProt Q9Y233); test: Inhibition of human PDE10A1
[13] = Oral bioavailability in Wistar Han rat at 5 mg/kg measured at 0.083 to 24 hrs by LC-MS/MS analysis; format: ADME, organism-based; settings: in vivo, time 0.083-24 hrs
Melanocortin receptor 3 = Melanocortin receptor 3 (Homo sapiens, UniProt P41968); test: Displacement of [125I]-NDP-alpha-MSH from human MC3R expressed in CHO cells measured for 2 hrs by microbeta counter analysis; format: cell-based
[14] = Volume of distribution at steady state in Wistar Han rat at 1 mg/kg, iv measured at 0.033 to 24 hrs by LC-MS/MS analysis; format: ADME, organism-based; settings: in vivo, time 0.033-24 hrs, read-out: Vdss
[15] = molecular target: Voltage-dependent L-type calcium channel subunit alpha-1C (Homo sapiens, UniProt Q13936); test: Inhibition of Cav1.2 (unknown origin)
[16] = Displacement of [125I]-NDP-alpha-MSH from dog MC4R expressed in CHO cells by microbeta counter analysis; format: cell-based, Canis lupus familiaris
[17] = AUClast in Wistar Han rat at 1 mg/kg, iv measured at 0.033 to 24 hrs by LC-MS/MS analysis; format: ADME, organism-based; design: dose 1 mg/kg, time upper 24 hrs, time lower 0.033 hrs, route iv; settings: in vivo
[18] = molecular target: cGMP-inhibited 3',5'-cyclic phosphodiesterase 3A (Homo sapiens, UniProt Q14432); test: Inhibition of human PDE3A
[19] = molecular target: High affinity cAMP-specific and IBMX-insensitive 3',5'-cyclic phosphodiesterase 8B (Homo sapiens, UniProt O95263); test: Inhibition of human PDE8B
Melanocortin receptor 4 = Melanocortin receptor 4 (Rattus norvegicus, UniProt P70596); test: Displacement of [125I]-NDP-alpha-MSH from rat MC4R expressed in CHO cells by microbeta counter analysis; format: cell-based
[20] = molecular target: 3',5'-cyclic-AMP phosphodiesterase 4D (Homo sapiens, UniProt Q08499); test: Inhibition of human PDE4D3
[21] = molecular target: Dual specificity calcium/calmodulin-dependent 3',5'-cyclic nucleotide phosphodiesterase 1B (Homo sapiens, UniProt Q01064); test: Inhibition of human PDE1B1
[22] = Metabolic stability in human hepatocyte assessed as intrinsic clearance measured per million cells HPLC/UV/MS analysis; format: ADME, cell-based; settings: hepatocytes, read-out: CLH
[23] = Tmax in Wistar Han rat at 5 mg/kg, po measured at 0.083 to 24 hrs by LC-MS/MS analysis; format: ADME, organism-based; settings: in vivo, time 0.083-24 hrs
Mus musculus [24] = test: Effect on body weight in anorexia/cachexia mouse model assessed as cumulative body weight gain at 1 mg/kg, po administered twice a day for 20 days and measured at 1 to 21 days; format: functional; settings: time 1-21 day
Melanocortin receptor 5 = Melanocortin receptor 5 (Homo sapiens, UniProt P33032); test: Agonist activity at human MC5R expressed in CHO cells assessed as increase in alpha-MSH induced cAMP level measured for 60 mins; format: functional, cell-based
[25] = AUClast in Beagle dog at 1 mg/kg, iv measured at 0.033 to 24 hrs by LC-MS/MS analysis; format: ADME, organism-based, Canis lupus familiaris; design: dose 1 mg/kg, time 0.033-24 hrs, route iv; settings: in vivo
Mus musculus [26] = test: Effect on body weight in anorexia/cachexia mouse model assessed as cumulative body weight gain at 0.3 mg/kg, po administered twice a day for 20 days and measured at 1 to 21 days; format: functional; settings: time 1-21 day
[27] = Clearance in Beagle dog plasma at 1 mg/kg, iv measured at 0.033 to 24 hrs by LC-MS/MS analysis; format: ADME, organism-based, Canis lupus familiaris; settings: time 0.033-24 hrs
Mus musculus [28] = test: Effect on body weight in anorexia/cachexia mouse model assessed as reduction in cumulative food intake at 1 mg/kg, po administered twice a day for 20 days and measured at 1 to 21 days; format: functional; design: scale not given: the % may be the effect or the level left; settings: time 1-21 day
[29] = AUC (0 to infinity) in Wistar Han rat at 5 mg/kg, po measured at 0.083 to 24 hrs by LC-MS/MS analysis; format: ADME, organism-based; design: dose 5 mg/kg, time 0.083-24 hrs, route po; settings: in vivo
[30] = molecular target: T1, Melanocyte-stimulating hormone receptor; test: Agonist activity at human MC1R expressed in CHO cells assessed as increase in alpha-MSH induced cAMP level measured for 60 mins; format: functional, cell-based
Target sequence in this assay (Q01726 whole entry, looked up): as the sequence (Q01726 whole entry) above

[31] = molecular target: cGMP-dependent 3',5'-cyclic phosphodiesterase (Homo sapiens, UniProt O00408); test: Inhibition of human PDE2A1
Phosphodiesterase 6 = test: Inhibition of human PDE6; format: protein assay
[32] = Half life in Beagle dog at 1 mg/kg, po measured at 0.25 to 24 hrs by LC-MS/MS analysis; format: ADME, organism-based, Canis lupus familiaris; settings: in vivo, time 0.25-24 hrs
Mus musculus [33] = test: Effect on body weight in anorexia/cachexia mouse model assessed as cumulative body weight gain at 10 mg/kg, po administered twice a day for 20 days and measured at 1 to 21 days; format: functional; settings: time 1-21 day
Mus musculus [34] = test: Effect on body weight in anorexia/cachexia mouse model assessed as increase in food intake administered twice a day for 20 days and measured at 1 to 21 days; format: functional, organism-based; settings: dose 0.3-10 mg/kg, time 1-21 day
[35] = AUC (0 to infinity) in Beagle dog at 1 mg/kg, iv measured at 0.033 to 24 hrs by LC-MS/MS analysis; format: ADME, organism-based, Canis lupus familiaris; design: time upper 24 hrs, dose 1 mg/kg, time lower 0.033 hrs, route iv; settings: in vivo
[36] = AUClast in Wistar Han rat at 5 mg/kg, po measured at 0.083 to 24 hrs by LC-MS/MS analysis; format: ADME, organism-based; design: time upper 24 hrs, dose 5 mg/kg, time lower 0.083 hrs, route po; settings: in vivo

cAMP and cAMP-inhibited cGMP 3',5'-cyclic phosphodiesterase 10A, sequence (Q9Y233 whole entry): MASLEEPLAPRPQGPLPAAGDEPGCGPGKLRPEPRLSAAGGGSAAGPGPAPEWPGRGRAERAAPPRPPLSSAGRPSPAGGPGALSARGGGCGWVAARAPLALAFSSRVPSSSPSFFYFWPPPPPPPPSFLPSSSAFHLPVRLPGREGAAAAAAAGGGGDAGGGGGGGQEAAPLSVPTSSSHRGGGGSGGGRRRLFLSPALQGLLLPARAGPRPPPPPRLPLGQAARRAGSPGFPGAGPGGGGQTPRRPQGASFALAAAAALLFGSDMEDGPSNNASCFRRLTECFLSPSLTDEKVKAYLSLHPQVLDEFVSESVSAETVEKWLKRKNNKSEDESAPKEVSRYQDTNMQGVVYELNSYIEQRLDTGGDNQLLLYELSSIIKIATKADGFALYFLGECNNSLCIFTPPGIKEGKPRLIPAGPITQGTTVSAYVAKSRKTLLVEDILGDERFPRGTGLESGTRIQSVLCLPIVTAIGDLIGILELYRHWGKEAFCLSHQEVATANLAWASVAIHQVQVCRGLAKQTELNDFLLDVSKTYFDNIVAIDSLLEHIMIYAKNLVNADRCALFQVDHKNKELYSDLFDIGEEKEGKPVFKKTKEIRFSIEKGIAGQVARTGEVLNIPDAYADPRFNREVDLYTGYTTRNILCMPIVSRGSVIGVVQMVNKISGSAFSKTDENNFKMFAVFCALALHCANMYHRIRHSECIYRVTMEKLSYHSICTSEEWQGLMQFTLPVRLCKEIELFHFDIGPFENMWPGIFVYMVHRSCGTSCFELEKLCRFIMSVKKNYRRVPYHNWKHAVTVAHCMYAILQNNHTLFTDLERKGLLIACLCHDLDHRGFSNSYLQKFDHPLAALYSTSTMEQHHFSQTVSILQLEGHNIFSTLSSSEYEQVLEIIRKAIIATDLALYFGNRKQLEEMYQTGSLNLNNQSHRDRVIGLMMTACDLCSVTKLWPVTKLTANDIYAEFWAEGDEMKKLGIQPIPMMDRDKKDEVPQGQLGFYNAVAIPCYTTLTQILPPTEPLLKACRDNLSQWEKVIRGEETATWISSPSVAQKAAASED
cGMP-inhibited 3',5'-cyclic phosphodiesterase 3A, sequence (Q14432 whole entry): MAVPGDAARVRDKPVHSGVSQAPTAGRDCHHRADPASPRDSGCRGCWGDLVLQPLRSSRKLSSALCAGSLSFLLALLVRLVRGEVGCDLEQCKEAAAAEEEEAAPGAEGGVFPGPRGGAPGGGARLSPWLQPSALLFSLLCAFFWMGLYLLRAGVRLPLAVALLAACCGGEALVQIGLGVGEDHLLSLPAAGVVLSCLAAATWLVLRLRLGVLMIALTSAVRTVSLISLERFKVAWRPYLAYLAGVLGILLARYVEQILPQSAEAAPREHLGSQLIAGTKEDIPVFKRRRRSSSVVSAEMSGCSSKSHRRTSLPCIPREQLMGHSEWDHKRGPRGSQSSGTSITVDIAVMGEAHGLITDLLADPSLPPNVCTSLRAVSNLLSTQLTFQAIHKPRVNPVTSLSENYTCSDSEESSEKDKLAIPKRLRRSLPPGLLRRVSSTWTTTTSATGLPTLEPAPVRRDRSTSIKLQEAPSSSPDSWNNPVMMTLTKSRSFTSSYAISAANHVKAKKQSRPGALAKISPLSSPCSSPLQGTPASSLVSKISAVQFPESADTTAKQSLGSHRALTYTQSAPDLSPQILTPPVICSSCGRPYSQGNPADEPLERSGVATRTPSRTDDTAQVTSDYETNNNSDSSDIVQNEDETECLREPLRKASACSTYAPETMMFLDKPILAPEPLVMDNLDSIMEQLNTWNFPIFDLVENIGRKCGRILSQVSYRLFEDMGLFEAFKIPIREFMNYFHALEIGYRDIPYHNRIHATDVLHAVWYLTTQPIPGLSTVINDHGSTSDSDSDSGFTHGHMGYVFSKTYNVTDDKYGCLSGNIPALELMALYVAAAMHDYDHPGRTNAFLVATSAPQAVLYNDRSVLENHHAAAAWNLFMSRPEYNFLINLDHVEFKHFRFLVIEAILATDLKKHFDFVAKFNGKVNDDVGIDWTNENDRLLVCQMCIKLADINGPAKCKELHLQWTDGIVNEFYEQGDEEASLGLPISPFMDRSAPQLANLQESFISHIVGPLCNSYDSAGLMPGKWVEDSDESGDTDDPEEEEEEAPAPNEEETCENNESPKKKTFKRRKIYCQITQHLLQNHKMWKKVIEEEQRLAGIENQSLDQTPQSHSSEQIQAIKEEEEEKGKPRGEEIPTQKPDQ
Melanocortin receptor 3, sequence (P41968 whole entry): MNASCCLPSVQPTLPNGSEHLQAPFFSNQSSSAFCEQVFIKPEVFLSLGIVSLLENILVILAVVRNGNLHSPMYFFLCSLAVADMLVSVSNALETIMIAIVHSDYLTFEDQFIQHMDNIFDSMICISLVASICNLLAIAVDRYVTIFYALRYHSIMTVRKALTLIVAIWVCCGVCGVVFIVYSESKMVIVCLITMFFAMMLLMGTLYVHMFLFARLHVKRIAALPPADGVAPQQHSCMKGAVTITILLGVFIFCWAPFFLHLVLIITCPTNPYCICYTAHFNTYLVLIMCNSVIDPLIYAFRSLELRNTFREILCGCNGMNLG
Melanocortin receptor 4, sequence (P70596 whole entry): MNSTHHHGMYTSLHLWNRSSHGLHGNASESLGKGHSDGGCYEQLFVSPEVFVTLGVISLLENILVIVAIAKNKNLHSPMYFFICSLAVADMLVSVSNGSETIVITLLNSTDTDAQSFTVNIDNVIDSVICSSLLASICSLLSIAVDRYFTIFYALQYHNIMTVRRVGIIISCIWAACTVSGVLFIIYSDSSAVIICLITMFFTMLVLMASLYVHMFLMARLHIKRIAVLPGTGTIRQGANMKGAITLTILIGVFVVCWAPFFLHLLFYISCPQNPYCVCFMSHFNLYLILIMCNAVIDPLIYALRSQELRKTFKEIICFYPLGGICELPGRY
Melanocortin receptor 5, sequence (P33032 whole entry): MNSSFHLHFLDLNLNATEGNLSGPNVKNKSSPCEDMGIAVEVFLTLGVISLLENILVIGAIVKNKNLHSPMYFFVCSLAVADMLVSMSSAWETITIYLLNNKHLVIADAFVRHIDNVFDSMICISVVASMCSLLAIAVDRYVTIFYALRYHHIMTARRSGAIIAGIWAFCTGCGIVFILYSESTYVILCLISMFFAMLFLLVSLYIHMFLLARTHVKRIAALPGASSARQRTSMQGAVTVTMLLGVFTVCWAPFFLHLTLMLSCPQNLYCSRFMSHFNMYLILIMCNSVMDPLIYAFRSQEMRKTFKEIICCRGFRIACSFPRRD
High affinity cAMP-specific and IBMX-insensitive 3',5'-cyclic phosphodiesterase 8B, sequence (O95263 whole entry): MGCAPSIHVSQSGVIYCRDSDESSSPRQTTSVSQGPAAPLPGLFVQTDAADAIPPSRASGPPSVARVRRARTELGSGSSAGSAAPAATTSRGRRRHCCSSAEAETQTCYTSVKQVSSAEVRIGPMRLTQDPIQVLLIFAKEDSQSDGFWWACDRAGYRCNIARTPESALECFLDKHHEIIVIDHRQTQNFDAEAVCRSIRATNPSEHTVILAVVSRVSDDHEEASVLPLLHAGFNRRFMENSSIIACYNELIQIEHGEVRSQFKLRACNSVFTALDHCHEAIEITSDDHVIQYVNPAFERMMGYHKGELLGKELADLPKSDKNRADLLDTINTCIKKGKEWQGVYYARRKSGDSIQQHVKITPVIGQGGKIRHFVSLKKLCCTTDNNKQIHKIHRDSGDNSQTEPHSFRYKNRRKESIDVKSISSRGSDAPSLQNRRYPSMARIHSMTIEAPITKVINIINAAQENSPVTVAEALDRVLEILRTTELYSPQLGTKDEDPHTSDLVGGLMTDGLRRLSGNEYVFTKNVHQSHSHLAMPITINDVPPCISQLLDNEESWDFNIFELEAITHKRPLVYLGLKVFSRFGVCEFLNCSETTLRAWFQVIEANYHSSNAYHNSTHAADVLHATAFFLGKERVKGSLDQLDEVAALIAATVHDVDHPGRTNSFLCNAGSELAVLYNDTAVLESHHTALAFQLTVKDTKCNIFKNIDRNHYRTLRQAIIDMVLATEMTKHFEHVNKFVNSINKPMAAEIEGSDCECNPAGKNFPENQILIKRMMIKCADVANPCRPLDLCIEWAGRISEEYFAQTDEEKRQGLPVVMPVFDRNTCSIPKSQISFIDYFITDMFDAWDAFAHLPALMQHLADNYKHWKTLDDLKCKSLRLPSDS
Dual specificity calcium/calmodulin-dependent 3',5'-cyclic nucleotide phosphodiesterase 1B, sequence (Q01064 whole entry): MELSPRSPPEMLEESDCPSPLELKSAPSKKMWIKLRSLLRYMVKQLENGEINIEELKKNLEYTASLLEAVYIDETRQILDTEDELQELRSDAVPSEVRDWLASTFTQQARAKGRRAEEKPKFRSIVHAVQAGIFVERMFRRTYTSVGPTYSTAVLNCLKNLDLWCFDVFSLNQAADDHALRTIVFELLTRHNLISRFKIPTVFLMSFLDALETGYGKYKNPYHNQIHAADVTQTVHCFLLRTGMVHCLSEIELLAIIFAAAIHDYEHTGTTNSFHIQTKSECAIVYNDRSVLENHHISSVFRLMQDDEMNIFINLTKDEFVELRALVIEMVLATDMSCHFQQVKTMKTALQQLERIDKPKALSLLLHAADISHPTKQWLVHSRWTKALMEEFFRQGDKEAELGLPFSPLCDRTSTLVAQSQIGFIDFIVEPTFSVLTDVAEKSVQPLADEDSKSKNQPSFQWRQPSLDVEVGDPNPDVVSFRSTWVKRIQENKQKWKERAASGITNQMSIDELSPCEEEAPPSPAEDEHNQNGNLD

For COc1cc([C@@H](C)C(=O)N2CC[C@@]3(COc4cc(-c5ncccn5)c(C)nc4N3)C2)c(F)cn1, which AUC(0-inf) [1] is on record?
Its AUC(0-inf) is 785 ng·h/mL.

And the Activity (Mus musculus [2])?
Its Activity is 111%.

And the Papp [3]?
Its Papp is 0.467 ×10⁻⁶ cm/s.

What about the IC50 [4] of the same compound?
Its IC50 is over 50 µM.

What about the Activity (Mus musculus [5]) of the same compound?
Its Activity is “Dose-Dependent Effect”.

And the AUC(0-t) [6]?
Its AUC(0-t) is 4580 ng·h/mL.

And the Ki [7]?
The Ki was over 1.6 µM.

And the clearance [8]?
The clearance was 21 mL/min/kg.

What about the Cmax [9] of the same compound?
Its Cmax is 1470 ng/mL.

What about the Activity (Mus musculus [10]) of the same compound?
The Activity was 23%.

What about the IC50 [11] of the same compound?
Its IC50 is 27 µM.

And the IC50 [12]?
Its IC50 is over 50 µM.

And the bioavailability [13]?
The bioavailability was 28%.

What about the Ki (Melanocortin receptor 3) of the same compound?
The Ki was 0.34 µM.

What about the Vd [14] of the same compound?
Its Vd is 0.95 L/kg.

What about the IC50 [15] of the same compound?
Its IC50 is over 100 µM.

What about the Ki [16] of the same compound?
Its Ki is 94 pM.

And the AUC(0-t) [17]?
Its AUC(0-t) is 780 ng·h/mL.

What about the IC50 [18] of the same compound?
Its IC50 is over 50 µM.

What about the IC50 [19] of the same compound?
Its IC50 is over 50 µM.

What about the Ki (Melanocortin receptor 4) of the same compound?
The Ki was 0.00052 µM.

What about the IC50 [20] of the same compound?
Its IC50 is over 50 µM.

What about the IC50 [21] of the same compound?
Its IC50 is over 50 µM.

And the hepatocyte CLint [22]?
The hepatocyte CLint was 12 µL/min/1e6 cells.

What about the Tmax [23] of the same compound?
The Tmax was 0.5 h.

What about the Activity (Mus musculus [24]) of the same compound?
The Activity was 5%.

And the Activity (Melanocortin receptor 5)?
Its Activity is “inactive”.

What about the AUC(0-t) [25] of the same compound?
Its AUC(0-t) is 1640 ng·h/mL.

What about the Activity (Mus musculus [26]) of the same compound?
The Activity was 2%.

And the clearance [27]?
The clearance was 11 mL/min/kg.

And the Activity (Mus musculus [28])?
Its Activity is 26%.

What about the AUC(0-inf) [29] of the same compound?
The AUC(0-inf) was 1120 ng·h/mL.

What about the Activity [30] of the same compound?
Its Activity is “inactive”.

What about the IC50 [31] of the same compound?
The IC50 was over 50 µM.

What about the IC50 (Phosphodiesterase 6) of the same compound?
The IC50 was over 50 µM.

And the half-life [32]?
Its half-life is 3.6 h.

And the Activity (Mus musculus [33])?
Its Activity is 22%.

What about the Activity (Mus musculus [34]) of the same compound?
The Activity was “Dose-Dependent Effect”.

What about the AUC [35] of the same compound?
Its AUC is 1660 ng·h/mL.

And the AUC(0-t) [36]?
The AUC(0-t) was 1110 ng·h/mL.
